Counter-ions that a name gives are not always drawn. Like-named read-outs stand apart in the source and are kept apart here.
Experiments:
[1] = for solubility at room temperature: water
[2] = alcoholic solution of 5-nitroindazole vs aqueous solution of I-2; in words
Method: A control composition (A) containing 100 g of inert gelatin in 1600 ml of water was prepared. The solution further contained matting agents and anti-halo dyes. In a second control composition (8) 300 ml of water was replaced by 300 ml of a 1% alcoholic solution of 5-nitroindazole. […] In each sample pH was adjusted to 6.5.

[3] = format: physicochemical; conditions: pH 11.5
Method: To said basic composition were added 0.46 mmole/l of water soluble 5-nitroindazole precursors according to the invention as specified in table 1 below. In a comparison developer 0.46 mmole of 5-nitroindazole (5-NI) was added per liter. […] Therefore a second comparison developer sample was included in which 5-nitroindazole was first dissolved in 30 ml of N-methyl-pyrrolidone (part B) and then added to the solution, replacing 30 ml of water. In each sample the pH was readjusted to 11.5 with sodium hydroxide.

Row | SMILES | instability problems in gelatineous compositions [2] | solubility at room temperature [1] | also measured
1 | Cc1ccc2[nH]nnc2c1 [5-methylbenzotriazole] |  |  | solubility in water ([1]; background section, no temperature given): 0.5 g/100 ml of water
2 | O=C(c1ccccc1S(=O)(=O)O)n1nnc2ccccc21 [Compound I-3, 1-(2-sulphonatobenzoyl)-benzotriazole triethylamine salt] |  | 5.8 g/100 ml | 
3 | c1ccc2[nH]nnc2c1 [benzotriazole] |  | 1.3 g/100 ml | 

More lines, main results first:

Row | instability problems in gelatineous compositions [2] | solubility at room temperature [1] | SMILES | also measured
4 | can be overcome |  | O=C(c1ccccc1S(=O)(=O)[O-])n1ncc2cc([N+](=O)[O-])ccc21.[K+] | solubility at room temperature ([1]; room temperature): 1.7 g/100 ml
5 | instability problems |  | O=[N+]([O-])c1ccc2[nH]ncc2c1 [5-nitroindazole] | solubility in developer solution [3]: only slightly soluble; solubility in water [1]: 0.02 g/100 ml of water

Reference: patent US5236815A, “Class of masked stabilizers in photographic materials or developing solutions” (priority 1991, dated 1993)
